Experimental data as given in article PMC12284848, “Safe and Efficient Intracellular Release of SN38 via Lysosomal-Responsive SN38‑G Loaded Liposomes” (ACS Applied Bio Materials, 2025).
In brackets after ≈: the same amount, converted by molar mass.

Columns and labels:
[1] = test system: lung adenocarcinoma (CL1-5); set-up: method as in ref 1 (SI); settings: CL1-5-inoculated mice, free prodrug; ref 1 (SI); cited from earlier work
MDA-MB-231 [2] = test: Cellular regeneration of SN38 from SN38-G liposomes, MDA-MB-231; assay type: cell-based; settings: 100 μM inhibitor, 2 μM SN38-G liposomes
MCF-7 [3] = test: Cellular regeneration of SN38 from SN38-G liposomes, MCF-7; assay type: cell-based, human; settings: 100 μM inhibitor, 2 μM SN38-G liposomes
[4] = test system: ovarian cancer model (OVCAR-3); set-up: method as in ref 7 (SI); settings: equitoxic dose; ref 7 (SI); cited from earlier work
MCF-7 [5] = test: Cell proliferation assay (CCK-8), MCF-7; assay type: cell-based, human
Description: Cells were seeded at a density of five thousand cells per well in 96-well plates and left to incubate overnight. Triplicate samples of free SN38, free SN38-G, and SN38-G liposomes were added at various dilutions and incubated for 24 h. CCK-8 stock solution was thawed at 37 °C in a water bath, 10 μL was added to each well, and plates were placed in the incubator for up to 4 h before measuring the absorbance at 450 nm using a microplate reader. Inhibition of cell proliferation was determined as 2 ″%ofinhibitioncomparedtocontrol^″=absorbanceat450nm(sample)×100/Absorbanceat450nm(control)
Sequential Esterification, Hydrolysis, Enzymatic Digestion, and Biological Activity Assessment of SN38-G to SN38. Commercial SN38-G was esterified in methanol or ethanol using sulfuric acid (H₂SO₄) and DMSO, following the procedure detailed in the Methods section under Synthesis of amphiphilic SN38-Gmet and SN38-Geth from SN38-G. The formation of the esters was monitored by analytical HPLC. For analysis, 2 µL of the reaction mixture was diluted in 248 µL of HPLC mobile phase, and 2.5 µL was injected with the fluorescence detector set at an excitation/emission wavelength of 375/430 nm. Hydrolysis of SN38-Gmet and SN38-Geth was carried out at 70 °C in 10 mM HEPES buffer, adjusted to pH 8. Samples were taken at 0, 5, 30, and 60 minutes, diluted in HPLC mobile phase (70% methanol, 25 mM citric acid, pH 3), and incubated at 70 °C for 10 minutes before injection. To generate active SN38, SN38-G was enzymatically cleaved by beta-glucuronidase following pH adjustment to 7 with phosphate buffer. The biological activity of the resulting SN38 was evaluated in an in-vitro cytotoxicity assay using human MCF-7 breast cancer cells, in comparison to commercial SN38. Cells were seeded at 5,000 cells per well in 96-well plates and incubated overnight. Triplicate samples of either commercial SN38 or SN38 generated from SN38-G were added at various dilutions and incubated for 24 hours. Afterward, 10 µL of CCK-8 solution (pre-warmed to 37 °C) was added to each well, and the plates were returned to the incubator for up to 4 hours. Absorbance was then measured at 450 nm using a microplate reader. Cell proliferation inhibition was calculated as: % inhibition = [Abs₄₅₀(sample) / Abs₄₅₀(control)] × 100 .
Cytotoxicity Assay in Cancerous and Non -Cancerous Cell Lines. […]
For the cytotoxicity assay cells were seeded at a density of 5,000 cells per well in 96 -well plates and allowed to adhere overnight. […] Absorbance at 450 nm was measured using a microplate reader. Cell viability was calculated as a percentage of untreated control cells. […]

physchem [6] = settings: for logP at 24 h: pH 6, Log P
Description: The log P, defined here by partitioning between 1-octanol and pH 6 buffer (Figure c), was measured to determine compound affinity for organic phases such as the lipid bilayer.
(§1) We added SN38, SN38-G, SN38-G^met, and SN38-G^eth in 10 mM MES pH 6 until it reached saturation and stopped dissolving. Saturated solutions were kept under agitation at room temperature for 24 h and centrifuged at 20,000g for 30 min at 24 °C. Analytical HPLC was then used to quantify the supernatants. The partitioning between 1-octanol and water was determined in 500 μL of 10 mM MES at pH 6 and 500 μL of 1-octanol. […] We allowed equilibration between the 2 phases for 24 h at room temperature under constant shaking. After this, the tubes were centrifuged at 20,000g for 30 min at 24 °C, and samples from each phase were analyzed by analytical HPLC. Using 70% methanol mobile phase conveniently dissolves 1-octanol, ensuring precise estimation of drugs’ quantities.

MDA-MB-231 [7] = test: Cell proliferation assay (CCK-8), MDA-MB-231; assay type: cell-based
Description: Cells were seeded at a density of five thousand cells per well in 96-well plates and left to incubate overnight. […] Inhibition of cell proliferation was determined as 2 ''%[…]^''=absorbanceat450nm(sample)×100/Absorbanceat450nm(control)

physchem [8] = settings: for solubility at 24 h: pH 6, aqueous buffer, thermodynamic from solid, water solubility; for water solubility: 24 h, pH 6
Description: Water solubility tests were conducted in a pH 6 buffer (Figure b) to prevent the hydrolysis of the ester bond.
as §1

[9] = Drug stability: retention in liposomes on dialysis in 0.9% NaCl with 10% FBS at 37 °C; assay type: physicochemical; settings: dialysis 0.9% NaCl with 10% FBS, over 15 days
Description: This stability is consistent with the physicochemical properties of SN38-G and its intraliposomal complexation with calcium, which limits membrane permeability.
We diluted SN38-G liposomes at 1 mg/mL of phospholipids in 2 mL of 0.9% NaCl, complemented with 10% FBS, before transferring to dialysis membrane (Visking Tubing, diameter 15.9 mm, molecular weight 12,000–14,000). We ran the dialysis at 37 °C in the dark against 2 L, to which we added 0.02% sodium azide to prevent bacterial growth, under constant stirring. Samples of 2 μL of liposomes were taken at different intervals and diluted in 248 μL of HPLC mobile phase (70% methanol, […], pH 3), lysed for 10 min at 70 °C, and injected (Volume = 2.5 μL) in the C18 reverse phase HPLC system to analyze the total remaining amount of encapsulated SN38-G.

[10] = Alkaline hydrolysis of SN38-G esters back to SN38-G (10 mM HEPES pH 8, 70 °C, HPLC); assay type: physicochemical; settings: alkaline conditions (10 mM HEPES pH 8), after 1 h
Description: Accordingly, we formed a loadable amphiphilic SN38-G by esterification in excess alcohol at elevated temperatures using a sulfuric acid (H2SO4) catalyst. Esterification was performed in either methanol or ethanol, resulting in a methylester (SN38-G^met) and an ethylester (SN38-G^eth). Within 12 h, over 95% of SN38-G was esterified to SN38-G^met and SN38-G^eth (Figure a). Both esters are expected to have different levels of amphiphilicity due to their respective ester length, which might influence their loading behavior. We then tested the reversibility of the esterification to regenerate hydrophilic SN38-G through alkaline hydrolysis, which is a crucial step to ensure proper retention after loading. The hydrolysis rates of SN38-G^met and SN38-G^eth under alkaline conditions at 70 °C, which simulates the elevated pH compartment of liposomes during loading, were adequate. After 1 h, 96.1% (±2.6) of SN38-G^met and 95.5% (±2.1) of SN38-G^eth were hydrolyzed back to SN38-G (Figure b). The hydrolysis duration aligns with the typical incubation time between drugs and liposomes during loading. […]
Hydrolysis of SN38-G^met and SN38-G^eth was performed in 10 mM HEPES adjusted to pH 8 to simulate the alkaline internal compartment of the liposomes during drug loading. We monitored the reaction at 70 °C and took samples at 0, 5, 30, and 60 min of incubation time. […]

beta-glucuronidase = test: Enzymatic digestion of SN38-G to SN38 by beta-glucuronidase; assay type: biochemical; settings: 37 °C

9-aminocamptothecin glucuronide [9AC glucuronide]
mice cured [1]: Up to 85%

O=C(O)[C@@H](O)[C@H]1OC(=O)[C@H](O)[C@H]1O [D-saccharic acid 1,4-lactone]
effect on production of SN38 in cells (MDA-MB-231 [2]): effectively suppressed | effect on production of SN38 in cells (MCF-7 [3]): effectively suppressed

COc1cccc2c1C(=O)c1c(O)c3c(c(O)c1C2=O)C[C@@](O)(C(=O)CO)C[C@@H]3O[C@H]1C[C@H](N)[C@H](O)[C@H](C)O1 [doxorubicin]
tumor inhibition [4]: 56%

CCc1c2c(nc3ccc(OC(=O)N4CCC(N5CCCCC5)CC4)cc13)-c1cc3c(c(=O)n1C2)COC(=O)[C@]3(O)CC [CPT-11]
cytotoxicity (MCF-7 [5]; MCF-7, 24 h, CCK-8): low cytotoxicity

CCc1c2c(nc3ccc(O)cc13)-c1cc3c(c(=O)n1C2)COC(=O)[C@]3(O)CC [SN38, 7-ethyl-10-hydroxycamptothecin]
higher affinity for the organic phase (physchem [6]; 1-octanol vs pH 6 buffer): 53 fold | logP at 24 h (physchem [6]): 1.73 | IC50 (MDA-MB-231 [7]; Homo sapiens, MDA-MB-231, 24 h, CCK-8): 24 nM | solubility at 24 h (physchem [8]): ~7.45 µg/mL (≈ 0.019 mM) | IC50 (MCF-7 [5]; Homo sapiens, MCF7, MCF-7, 24 h, CCK-8): 5.82 nM | in vitro cytotoxicity of SN38 regenerated from reformed SN38-G (MCF-7 [5]; SN38 made by esterification, hydrolysis and beta-glucuronidase digestion of SN38-G, MCF-7, 24 h): comparable to that of a commercial SN38 standard

CCc1c2c(nc3ccc(O[C@@H]4O[C@H](C(=O)OC)[C@@H](O)[C@H](O)[C@H]4O)cc13)-c1cc3c(c(=O)n1C2)COC(=O)[C@]3(O)CC [SN38-G^met]
retention within liposomes [9]: rapid clearance | logP at 24 h (physchem [6]): 0.07 | water solubility (physchem [8]): 3860 µg/mL (≈ 6.63 mM) | solubility at 24 h (physchem [8]): ~3860 µg/mL (≈ 6.63 mM) | hydrolyzed back to SN38-G [10]: 96.1%

CCc1c2c(nc3ccc(O[C@@H]4O[C@H](C(=O)O)[C@@H](O)[C@H](O)[C@H]4O)cc13)-c1cc3c(c(=O)n1C2)COC(=O)[C@]3(O)CC [SN38-G, SN38 glucuronide]
retention within liposomes [9]: excellent retention | higher affinities for the aqueous phase (physchem [6]; 1-octanol vs pH 6 buffer): over 775 fold | logP at 24 h (physchem [6]): -2.89 | reduction of toxicity versus SN38 (MDA-MB-231 [7]; MDA-MB-231): 550.5 fold | cleavage by beta-glucuronidase to SN38 (beta-glucuronidase): rapidly cleaved | water solubility (physchem [8]): 62800 µg/mL (≈ 110 mM) | solubility at 24 h (physchem [8]): ~59500 µg/mL (≈ 105 mM) | reduction of toxicity versus SN38 (MCF-7 [5]; MCF-7): 728.5 fold

CCOC(=O)[C@H]1O[C@@H](Oc2ccc3nc4c(c(CC)c3c2)Cn2c-4cc3c(c2=O)COC(=O)[C@]3(O)CC)[C@H](O)[C@@H](O)[C@@H]1O [SN38-G^eth]
retention within liposomes [9]: rapid clearance | logP at 24 h (physchem [6]): 0.66 | water solubility (physchem [8]): 1500 µg/mL (≈ 2.51 mM) | solubility at 24 h (physchem [8]): ~1500 µg/mL (≈ 2.51 mM) | hydrolyzed back to SN38-G [10]: 95.5%
